The values that follow come from article PMC7076710, “Synthesis, Identification, and Structure–Activity Relationship Analysis of GATA4 and NKX2-5 Protein–Protein Interaction Modulators” (Journal of Medicinal Chemistry, 2019).

Data set [1] relates to COS-1 cells. The data set can be described thus: LDH assay (necrosis). Type of data set: cell-based.
The subject of data set [2] is COS-1 cells. The data set can be described thus: ATP assay (CellTiter-Glo cell viability). Type of data set: cell-based. The conditions noted are these: 24-h exposure; for reduction of cell viability (ATP content): 10 μM. The text has this: To investigate the toxicity as a potential cause of decreased or increased activity in luciferase reporter gene assays, we tested a set of 40 active compounds in the COS-1 cell line used for the luciferase assays. Concentration-dependent toxic effects were investigated using the lactate dehydrogenase (LDH) assay to detect necrosis and the 3-(4,5-dimethylthiazol-2-yl)-2,5-diphenyltetrazolium bromide (MTT) assay as a measure of cell viability. […] For the data analysis, compounds were classified as toxic (Figures 5 and 7) if they induced a >10% decrease in cell viability in the MTT assay at the concentration of 10 μM. The most toxic compounds (35a, 35d, 54, 58, and 63–65) in the MTT assay all contained a phenyl substituent in the southern part ring, while the ortho-nitrophenyl-derivative 39g and the phenyl-substituted thiophene 47t were nontoxic. Higher flexibility in the central parts of the ethers (35a, 35d) and N-acylated amines (58, 64) might contribute to their toxicity, because less rigid compounds are more likely to have affinity to various biological targets. Such interactions can cause toxicity. To confirm and validate the results from MTT assays, we tested three nontoxic (2, 47s, and 72) and three toxic (1, 35a, and 58) compounds in a cell viability assay measuring intracellular ATP content.
Figure 5 Effects of selected compounds on COS-1 cell viability. (A) Compound-induced necrosis was quantified with the LDH assay after a 24-h compound exposure. The data are presented as cytotoxicity percentage (% of maximal LDH release). (B) Cell viability was analyzed with the MTT assay after a 24-h compound exposure. (A,B) The data are means from 2–3 independent experiments with 3 replicate wells in each and are presented as % of control (vehicle-treated cells). The compounds have been grouped on the basis of the structure of the central part: a, amide; b, ether; c, N-acylated amine; d, amine; and e, imine. (C) The effects of selected compounds on cell viability as determined by ATP content after a 24-h compound exposure. The data are mean + SEM from three independent experiments and are presented as % of vehicle-treated cells.
A selected set of compounds were tested also in the ATP assay by using CellTiter-Glo Luminescent Cell Viability assay (Promega). Subculturing and treatment of COS-1 cells were otherwise performed similar to that in the MTT test, but the final volume of treatment was 200 μL per well. Doxorubicin was used as a positive control in the assay. After treatment, the plates were equilibrated at room temperature for 30 min, after which the media was removed and cells were washed with 100 μL of PBS. Next, 50 μL of fresh media and 50 μL of mixed CellTiter Glo Reagent were added to the plate. The contents of the plates were mixed for 2 min, and incubated at room temperature for 15 min. The luminescence was measured with VarioskanTM LUX Multimode Plate Reader (Thermo Fisher Scientific, Waltham, MA) using SkanItTM Software 5.0.
(In general: Cellular ATP, detected with luciferase, serves as a proxy for viable cell number.)

`CCN(CC)c1ccc(NC(=O)c2c(-c3ccccc3)noc2C)cc1` [Compound 1, N-[4-(Diethylamino)phenyl]-5-methyl-3-phenylisoxazole-4-carboxamide]: in the data set on COS-1 cells [1] (COS-1 cells), the LDH.1µM turned out to be 1.16, the LDH.3µM was 0.89, the LDH.10µM is given as -0.76 and the LDH.30µM is -0.02. The “reduction of cell viability (ATP content)” value (shortened to “reduction of cell viability”) with COS-1 cells [2] is given as over 10%.

In the data set with COS-1 cells [1] (COS-1 cells), `Cc1onc(-c2ccccc2)c1C(=O)N(C1=NC(C)CS1)c1ccc(Cl)cc1` (stereo not shown) [Compound 2] gave an LDH.1µM of 1.6, an LDH.3µM of 1.4, an LDH.10µM of 1.08 and an LDH.30µM of 1.02. Also, in the data set with COS-1 cells [2], the “toxicity in the ATP assay (in words)” value is given as “no toxicity”.

For the molecule `Cc1onc(-c2ccccc2)c1COc1ccc(C(=O)OCCC#N)cc1` [Compound 35a, 2-Cyanoethyl 4-[(5-Methyl-3-phenylisoxazol-4-yl)methoxy]benzoate], in the data set on COS-1 cells [1], the LDH.1µM amounted to 0.51, the LDH.3µM is listed as 1.44, the LDH.10µM is reported as 1.72 and the LDH.30µM is recorded as 1. The “reduction of cell viability” value in the data set with COS-1 cells [2] is reported as over 10%.

As to `CCN(CC)c1ccc(NC(=O)c2cnsc2)cc1` [Compound 47s], in the data set with COS-1 cells [1], the LDH.1µM amounted to 3.18, the LDH.3µM is 0.65, the LDH.10µM is 1.08 and the LDH.30µM stood at 0.91. Further, the “toxicity in the ATP assay (in words)” value with COS-1 cells [2] is recorded as “no toxicity”.

Turning to `CCC(=O)N(Cc1ccc(N(CC)CC)cc1)c1c(-c2ccccc2)noc1C` [Compound 58], in the data set on COS-1 cells [1], the LDH.1µM is given as 0.36, the LDH.3µM is -0.8, the LDH.10µM was -1.03 and the LDH.30µM is 1.47. Besides, the “reduction of cell viability” value in the data set on COS-1 cells [2] is over 10%.

Regarding `COc1ccc(-c2cc(NC(=O)c3ccc(C(C)(C)C)cc3)n[nH]2)cc1` [Compound 72], in the data set on COS-1 cells [1], the LDH.1µM was determined as 2.2, the LDH.3µM is 0.82, the LDH.10µM turned out to be 0.22 and the LDH.30µM is reported as -0.27. In addition, the “toxicity in the ATP assay (in words)” value with COS-1 cells [2] is “no toxicity”.

In the data set on COS-1 cells [1], “N-[4-(Diethylamino)phenyl]-3-methyl-5-(4-methyl-1,2,3-thiadiazol-5-yl)isoxazole-4-carboxamide [Compound 47c]” displayed an LDH.1µM of -0.01, an LDH.3µM of -0.17, an LDH.10µM of 0.1 and an LDH.30µM of -0.11.
